Assay results from patent US11396502B2, “Substituted heterocyclic derivatives as PI3K inhibitors” (Incyte Corporation, priority 2018, dated 2022).
Counter-ions that a name gives are not always drawn.

Key:
[1] = system: Phosphorylated Ribosomal Protein S6 (RPS6) in THP-1 cells; assay: THP-1 RPS6 ELISA assay; type: cell-based, Human; settings: Homo sapiens, THP-1, serum starved THP-1 cells, 2 hours compound, 10 nM MCP-1 for 15 minutes, Phospho-RPS6 ELISA; read-out: PI3Kγ_THP1_RPS6_ELISA IC50
Description: Example A. THP-1 RPS6 ELISA Assay
To measure the Phosphorylated Ribosomal Protein S6 (RPS6) in cell lysates, THP-1 cells (Human Acute Monocytic Leukemia) are purchased from ATCC (Manassas, Va.) and maintained in RPMI with 10% FBS (Gibco/Life Technologies, Carlsbad, Calif.). For the assay, THP-1 cells are serum starved overnight in RPMI, then plated in RPMI (2×10^5 cells/well in 90 μL) into 96-well flat-bottom tissue culture treated plates (Corning, Corning, N.Y.), in the presence or absence of a concentration range of test compounds. Covered plates are incubated for 2 hours at 37° C., 5% CO2 then treated with or without 10 nM MCP-1 (MYBioSource, San Diego, Calif.) for 15 minutes at 37° C., 5% CO2. Plates are centrifuged at 1600 RPM and supernatants are removed. Cells are lysed in Lysis Buffer (Cell Signaling, Danvers, Mass.) with Protease Inhibitor (Calbiochem/EMD, Germany), PMSF (Sigma, St Louis Mo.), HALTS (Thermo Fisher, Rockford, Ill.) for 30 min on wet ice. Cell lysates are frozen at −80° C. before testing. The lysates are tested in the Human/Mouse/Rat Phospho-RPS6 ELISA (R&D Systems, Inc. Minn, Minn.). The plate is measured using a microplate reader (SpectraMax M5—Molecular Devices, LLC Sunnyvale, Calif.) set to 450 nm with a wavelength correction of 540. IC50 determination is performed by fitting the curve of inhibitor percent inhibition versus the log of the inhibitor concentration using the GraphPad Prism 5.0 software.

[2] = molecular target: PI3Kγ (p110γ) (Homo sapiens (Human), UniProt P48736); assay: PI3K-γ scintillation proximity assay; type: biochemical; settings: recombinant human PI3Kγ 13 nM, 20 μM PIP2, 2 μM ATP, 120 min, room temperature
Sequence of PI3Kγ (p110γ) (P48736 whole entry): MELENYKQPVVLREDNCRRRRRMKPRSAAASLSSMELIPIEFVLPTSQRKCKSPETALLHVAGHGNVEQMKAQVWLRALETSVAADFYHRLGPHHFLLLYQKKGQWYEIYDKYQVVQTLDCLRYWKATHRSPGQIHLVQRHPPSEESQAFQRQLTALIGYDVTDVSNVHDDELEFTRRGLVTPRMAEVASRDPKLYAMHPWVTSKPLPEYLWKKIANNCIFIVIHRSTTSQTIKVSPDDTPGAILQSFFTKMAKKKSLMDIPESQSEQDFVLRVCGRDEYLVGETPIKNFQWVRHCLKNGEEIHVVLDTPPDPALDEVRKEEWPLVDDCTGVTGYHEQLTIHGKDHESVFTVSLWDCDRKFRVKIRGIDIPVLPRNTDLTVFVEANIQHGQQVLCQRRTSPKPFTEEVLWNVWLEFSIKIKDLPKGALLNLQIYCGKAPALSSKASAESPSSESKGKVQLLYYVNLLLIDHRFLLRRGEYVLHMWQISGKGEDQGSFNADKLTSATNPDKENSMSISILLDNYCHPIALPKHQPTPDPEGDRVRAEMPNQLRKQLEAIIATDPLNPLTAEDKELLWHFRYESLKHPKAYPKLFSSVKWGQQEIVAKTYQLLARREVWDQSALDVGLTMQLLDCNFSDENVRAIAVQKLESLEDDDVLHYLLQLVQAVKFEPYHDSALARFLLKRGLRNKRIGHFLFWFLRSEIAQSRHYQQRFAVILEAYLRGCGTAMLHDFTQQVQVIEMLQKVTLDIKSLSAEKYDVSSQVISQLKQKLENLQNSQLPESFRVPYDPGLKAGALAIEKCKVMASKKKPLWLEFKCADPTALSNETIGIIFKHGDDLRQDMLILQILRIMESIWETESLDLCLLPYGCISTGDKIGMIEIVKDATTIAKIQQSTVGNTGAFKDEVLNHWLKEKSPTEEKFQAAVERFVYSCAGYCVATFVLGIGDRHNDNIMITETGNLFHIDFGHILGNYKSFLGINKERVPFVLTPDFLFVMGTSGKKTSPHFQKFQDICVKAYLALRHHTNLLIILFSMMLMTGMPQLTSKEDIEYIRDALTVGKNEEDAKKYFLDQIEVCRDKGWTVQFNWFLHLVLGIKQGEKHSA
From the text: Example B. PI3K-γ Scintillation Proximity Assay Materials: [γ-^33P]ATP (10 mCi/mL) and Wheat Germ Agglutinin (WGA) YSi SPA Scintillation Beads was purchased from Perkin Elmer (Waltham, Mass.). Lipid kinase substrate, D-myo-Phosphatidylinositol 4,5-bisphosphate (PtdIns(4,5)P2)D (+)-sn-1,2-di-O-octanoylglyceryl, 3-O-phospho linked (PIP2), CAS 204858-53-7, was purchased from Echelon Biosciences (Salt Lake City, Utah). PI3Kγ (p110γ) Recombinant Human Protein was purchased from Life technology (Grand Island, N.Y.). ATP, MgCl2, DTT, EDTA, MOPS and CHAPS were purchased from Sigma Aldrich (St. Louis, Mo.). The kinase reaction was conducted in polystyrene 384-well Greiner Bio-one white plate from Thermo Fisher Scientific in a final volume of 25 μL. Inhibitors were first diluted serially in DMSO and added to the plate wells before the addition of other reaction components. The final concentration of DMSO in the assay was 2%. The PI3Kγ assay was carried out at room temperature in 20 mM MOPS, pH 6.7, 10 mM MgCl2, 5 mM DTT and CHAPS 0.03%. Reactions were initiated by the addition of ATP, the final reaction mixture consisted of 20 μM PIP2, 2 μM ATP, 0.5 μCi [γ-^33P] ATP, 13 nM PI3Kγ. Reactions were incubated for 120 min and terminated by the addition of 40 μL SPA beads suspended in quench buffer: 163 mM potassium phosphate pH 7.8, 20% glycerol, 25 mM EDTA. The final concentration of SPA beads is 1.0 mg/mL. After the plate sealing, plates were shaken overnight at room temperature and centrifuged at 1500 rpm for 10 min, the radioactivity of the product was determined by scintillation counting on Topcount (Perkin-Elmer). IC50 determination was performed by fitting the curve of percent of the solvent control activity versus the log of the inhibitor concentration using the GraphPad Prism 6.0 software.

[3] = molecular target: PI3Kδ (p110δ/p85α) (Homo sapiens (Human), UniProt O00329); assay: PI3Kδ scintillation proximity assay; type: biochemical; settings: recombinant human PI3Kδ 3.4 nM, 20 μM PIP2, 2 μM ATP, 120 min, room temperature
Sequence of PI3Kδ (p110δ/p85α) (O00329 whole entry): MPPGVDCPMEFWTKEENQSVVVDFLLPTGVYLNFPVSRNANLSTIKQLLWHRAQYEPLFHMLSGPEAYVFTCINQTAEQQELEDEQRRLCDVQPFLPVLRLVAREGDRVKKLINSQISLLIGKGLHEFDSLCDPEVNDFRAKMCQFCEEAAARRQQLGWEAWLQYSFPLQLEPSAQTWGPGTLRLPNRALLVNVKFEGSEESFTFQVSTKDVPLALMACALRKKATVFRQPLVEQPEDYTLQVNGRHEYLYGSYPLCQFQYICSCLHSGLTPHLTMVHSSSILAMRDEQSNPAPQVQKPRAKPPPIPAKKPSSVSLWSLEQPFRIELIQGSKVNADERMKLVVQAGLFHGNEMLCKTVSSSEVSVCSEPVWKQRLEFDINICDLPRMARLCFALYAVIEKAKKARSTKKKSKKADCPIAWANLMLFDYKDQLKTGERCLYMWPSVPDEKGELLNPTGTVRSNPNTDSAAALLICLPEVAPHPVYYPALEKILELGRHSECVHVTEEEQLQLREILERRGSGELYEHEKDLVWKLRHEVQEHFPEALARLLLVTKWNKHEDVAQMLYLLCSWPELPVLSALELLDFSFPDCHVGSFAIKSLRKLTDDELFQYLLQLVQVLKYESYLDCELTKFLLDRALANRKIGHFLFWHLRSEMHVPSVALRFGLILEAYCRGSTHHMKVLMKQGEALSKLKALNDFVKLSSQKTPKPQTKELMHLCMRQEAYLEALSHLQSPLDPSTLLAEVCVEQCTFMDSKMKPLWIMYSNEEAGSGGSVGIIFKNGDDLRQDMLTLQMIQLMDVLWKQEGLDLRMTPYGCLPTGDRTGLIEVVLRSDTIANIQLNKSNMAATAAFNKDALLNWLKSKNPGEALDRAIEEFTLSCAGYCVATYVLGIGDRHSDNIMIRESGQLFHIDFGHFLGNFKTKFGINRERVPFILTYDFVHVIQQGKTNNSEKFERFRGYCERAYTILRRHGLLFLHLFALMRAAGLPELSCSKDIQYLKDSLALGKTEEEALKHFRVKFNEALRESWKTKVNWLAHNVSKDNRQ
Sequence of PI3Kδ (p110δ/p85α) (P27986 whole entry partner): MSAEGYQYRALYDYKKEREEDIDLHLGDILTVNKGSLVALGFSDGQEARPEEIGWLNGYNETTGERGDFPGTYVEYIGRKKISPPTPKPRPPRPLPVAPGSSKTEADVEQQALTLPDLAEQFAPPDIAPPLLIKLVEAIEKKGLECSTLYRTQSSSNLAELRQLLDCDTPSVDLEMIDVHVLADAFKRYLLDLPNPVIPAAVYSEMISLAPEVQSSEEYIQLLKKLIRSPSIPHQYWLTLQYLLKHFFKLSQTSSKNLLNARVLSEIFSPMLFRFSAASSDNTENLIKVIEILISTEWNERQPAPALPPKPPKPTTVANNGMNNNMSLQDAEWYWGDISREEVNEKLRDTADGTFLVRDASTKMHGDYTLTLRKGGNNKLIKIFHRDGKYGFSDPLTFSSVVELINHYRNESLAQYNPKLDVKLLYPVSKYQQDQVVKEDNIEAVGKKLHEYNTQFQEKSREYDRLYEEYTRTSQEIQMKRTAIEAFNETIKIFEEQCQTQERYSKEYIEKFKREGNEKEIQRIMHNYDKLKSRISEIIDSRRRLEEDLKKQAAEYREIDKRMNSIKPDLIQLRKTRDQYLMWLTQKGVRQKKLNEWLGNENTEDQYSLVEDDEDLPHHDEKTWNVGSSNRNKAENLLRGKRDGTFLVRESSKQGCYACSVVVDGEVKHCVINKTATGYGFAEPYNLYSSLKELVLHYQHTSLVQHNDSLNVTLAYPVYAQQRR
From the text: Example C. PI3Kδ Scintillation Proximity Assay Materials: [γ-^33P]ATP (10 mCi/mL) and Wheat Germ Agglutinin (WGA) YSi SPA Scintillation Beads was purchased from Perkin Elmer (Waltham, Mass.). Lipid kinase substrate, D-myo-Phosphatidylinositol 4,5-bisphosphate (PtdIns(4,5)P2)D (+)-sn-1,2-di-O-octanoylglyceryl, 3-O-phospho linked (PIP2), CAS 204858-53-7, was purchased from Echelon Biosciences (Salt Lake City, Utah). PI3Kδ (p110δ/p85α) Recombinant Human Protein was purchased from Eurofins (St Charles, Mo.). ATP, MgCl2, DTT, EDTA, MOPS and CHAPS were purchased from Sigma Aldrich (St. Louis, Mo.). The kinase reaction was conducted in polystyrene 384-well Greiner Bio-one white plate from Thermo Fisher Scientific in a final volume of 25 μL. Inhibitors were first diluted serially in DMSO and added to the plate wells before the addition of other reaction components. The final concentration of DMSO in the assay was 2%. The PI3Kδ assay was carried out at room temperature in 20 mM MOPS, pH 6.7, 10 mM MgCl2, 5 mM DTT and CHAPS 0.03%. Reactions were initiated by the addition of ATP, the final reaction mixture consisted of 20 μM PIP2, 2 μM ATP, 0.5 μCi [γ-^33P] ATP, 3.4 nM PI3Kδ. Reactions were incubated for 120 min and terminated by the addition of 40 μL SPA beads suspended in quench buffer: 163 mM potassium phosphate pH 7.8, 20% glycerol, 25 mM EDTA. The final concentration of SPA beads is 1.0 mg/mL. After the plate sealing, plates were shaken overnight at room temperature and centrifuged at 1500 rpm for 10 min, the radioactivity of the product was determined by scintillation counting on Topcount (PerkinElmer). IC50 determination was performed by fitting the curve of percent of the solvent control activity versus the log of the inhibitor concentration using the GraphPad Prism 6.0 software.

IC50 [1] [nM]	IC50 [2] [nM]	IC50 [3] [nM]	SMILES
100 to 500	< 100	100 to 500	Cc1[nH]c(-c2cc(-c3cc4c(c(S(C)(=O)=O)c3)C(=O)N([C@@H](C)C3CC3)C4)ccn2)nc1C(=O)NC1CCC1 [Example 7k, (S)-N-Cyclobutyl-2-(4-(2-(1-cyclopropylethyl)-7-(methylsulfonyl)-1-oxoisoindolin-5-yl)pyridin-2-yl)-4-methyl-1H-imidazole-5-carboxamide, trifluoroacetate salt]
500 to 1000	< 100	500 to 2000	Cc1[nH]c(-c2cc(-c3cc4c(c(S(C)(=O)=O)c3)C(=O)N([C@@H](C)C3CC3)C4)ccn2)nc1C(=O)NC1CN(C)C1 [Example 7m, (S)-2-(4-(2-(1-Cyclopropylethyl)-7-(methylsulfonyl)-1-oxoisoindolin-5-yl)pyridin-2-yl)-4-methyl-N-(1-methylazetidin-3-yl)-1H-imidazole-5-carboxamide, trifluoroacetate salt]
100 to 500	< 100	100 to 500	Cc1[nH]c(-c2cc(-c3cc4c(c(S(C)(=O)=O)c3)C(=O)N([C@@H](C)C3CC3)C4)ccn2)nc1C(=O)N(C)C1CCOCC1 [Example 7o, (S)-2-(4-(2-(1-Cyclopropylethyl)-7-(methylsulfonyl)-1-oxoisoindolin-5-yl)pyridin-2-yl)-N,4-dimethyl-N-(tetrahydro-2H-pyran-4-yl)-1H-imidazole-5-carboxamide, trifluoroacetate salt]
100 to 500	< 100	500 to 2000	Cc1[nH]c(-c2cc(-c3cc4c(c(S(C)(=O)=O)c3)C(=O)N([C@@H](C)C3CC3)C4)ccn2)nc1C(=O)N1CC2(COC2)C1 [Example 7p, (S)-2-(1-Cyclopropylethyl)-5-(2-(4-methyl-5-(2-oxa-6-azaspiro[3.3]heptane-6-carbonyl)-1H-imidazol-2-yl)pyridin-4-yl)-7-(methylsulfonyl)isoindolin-1-one, trifluoroacetate salt]
> 1000	< 100	500 to 2000	Cc1[nH]c(-c2cc(-c3cc4c(c(S(C)(=O)=O)c3)C(=O)N([C@@H](C)C3CC3)C4)ccn2)nc1C(N)=O [Example 7q, (S)-2-(4-(2-(1-Cyclopropylethyl)-7-(methylsulfonyl)-1-oxoisoindolin-5-yl)pyridin-2-yl)-4-methyl-1H-imidazole-5-carboxamide, trifluoroacetate salt]
100 to 500	< 100	500 to 2000	CCNC(=O)c1nc(-c2cc(-c3cc4c(c(S(C)(=O)=O)c3)C(=O)N([C@@H](C)C3CC3)C4)ccn2)[nH]c1C [Example 7r, (S)-2-(4-(2-(1-Cyclopropylethyl)-7-(methylsulfonyl)-1-oxoisoindolin-5-yl)pyridin-2-yl)-N-ethyl-4-methyl-1H-imidazole-5-carboxamide, trifluoroacetate salt]
500 to 1000	< 100	500 to 2000	CCN(C)C(=O)c1nc(-c2cc(-c3cc4c(c(S(C)(=O)=O)c3)C(=O)N([C@@H](C)C3CC3)C4)ccn2)[nH]c1C [Example 7s, (S)-2-(4-(2-(1-Cyclopropylethyl)-7-(methylsulfonyl)-1-oxoisoindolin-5-yl)pyridin-2-yl)-N-ethyl-N,4-dimethyl-1H-imidazole-5-carboxamide, trifluoroacetate salt]
100 to 500	< 100	500 to 2000	Cc1[nH]c(-c2cc(-c3cc4c(c(S(C)(=O)=O)c3)C(=O)N([C@@H](C)C3CC3)C4)ccn2)nc1C(=O)N(C)C(C)C [Example 7t, (S)-2-(4-(2-(1-Cyclopropylethyl)-7-(methylsulfonyl)-1-oxoisoindolin-5-yl)pyridin-2-yl)-N-isopropyl-N,4-dimethyl-1H-imidazole-5-carboxamide, trifluoroacetate salt]
100 to 500	< 100	500 to 2000	Cc1[nH]c(-c2cc(-c3cc4c(c(S(C)(=O)=O)c3)C(=O)N([C@@H](C)C3CC3)C4)ccn2)nc1C(=O)N(C)C1CCC1 [Example 7u, (S)-N-Cyclobutyl-2-(4-(2-(1-cyclopropylethyl)-7-(methylsulfonyl)-1-oxoisoindolin-5-yl)pyridin-2-yl)-N,4-dimethyl-1H-imidazole-5-carboxamide, trifluoroacetate salt]
> 1000	100 to 500	> 2000	C[C@@H](C1CC1)N1Cc2cc(-c3cnnc(-c4ccn[nH]4)c3)cc(S(C)(=O)=O)c2C1=O [Example 9, (S)-5-(6-(1H-Pyrazol-5-yl)pyridazin-4-yl)-2-(1-cyclopropylethyl)-7-(methylsulfonyl)isoindolin-1-one Trifluoroacetate Salt]
> 1000	100 to 500	> 2000	Cc1cc(-c2cc(-c3cc4c(c(S(C)(=O)=O)c3)C(=O)N([C@@H](C)C3CC3)C4)cnn2)[nH]n1 [Example 10, (S)-2-(1-Cyclopropylethyl)-5-(6-(3-methyl-1H-pyrazol-5-yl)pyridazin-4-yl)-7-(methylsulfonyl)isoindolin-1-one, trifluoroacetate salt]
> 1000	< 100	> 2000	Cc1nnc(-c2cc(-c3cc4c(c(S(C)(=O)=O)c3)C(=O)N([C@@H](C)C3CC3)C4)ccn2)[nH]1 [Example 12, (S)-2-(1-Cyclopropylethyl)-5-(2-(5-methyl-4H-1,2,4-triazol-3-yl)pyridin-4-yl)-7-(methylsulfonyl)isoindolin-1-one]
> 1000	< 100	> 2000	Cc1cc(-c2cc(-c3cc4c(c(S(C)(=O)=O)c3)C(=O)N([C@@H](C)C3CC3)C4)ccn2)[nH]n1 [Example 14, (S)-2-(1-Cyclopropylethyl)-5-(2-(3-methyl-1H-pyrazol-5-yl)pyridin-4-yl)-7-(methylsulfonyl)isoindolin-1-one, Trifluoroacetate Salt]
